Laboratory results reported in ChEMBL document CHEMBL4715724, “Novel 5-substituted-2-anilinoquinolines with 3-(morpholino or 4-methylpiperazin-1-yl)propoxy moiety as broad spectrum antiproliferative agents: Synthesis, cell based assays and kinase screening” (Bioorg Med Chem Lett, 2016).

Key:
TK-10 = assay: cells; format: functional; conditions: Homo sapiens, time 48 hrs
Description: Growth inhibition of human TK-10 cells incubated for 48 hrs by sulforhodamine B assay

SK-MEL-28 [1] = assay: cells; format: functional; conditions: Homo sapiens, time 48 hrs
Description: Growth inhibition of human SK-MEL-28 cells incubated for 48 hrs by sulforhodamine B assay

OVCAR-8 = assay: cells; format: functional; conditions: Homo sapiens, time 48 hrs
Description: Growth inhibition of human OVCAR-8 cells incubated for 48 hrs by sulforhodamine B assay

[2] = system: Panel ovarian (Carcinoma cell lines); assay: cells; format: functional; conditions: Homo sapiens, time 48 hrs
Description: Growth inhibition of human Panel ovarian (Carcinoma cell lines) incubated for 48 hrs by sulforhodamine B assay

[3] = system: Panel NCI-60 (60 carcinoma cell lines); assay: cells; format: functional; conditions: Homo sapiens, time 48 hrs
Description: Growth inhibition of human Panel NCI-60 (60 carcinoma cell lines) incubated for 48 hrs by sulforhodamine B assay

CCRF-CEM = assay: cells; format: functional; conditions: Homo sapiens, time 48 hrs
Description: Growth inhibition of human CCRF-CEM cells incubated for 48 hrs by sulforhodamine B assay

MDA-MB-468 = assay: cells; format: functional; conditions: Homo sapiens, time 48 hrs
Description: Growth inhibition of human MDA-MB-468 cells incubated for 48 hrs by sulforhodamine B assay

IGROV-1 = assay: cells; format: functional; conditions: Homo sapiens, time 48 hrs
Description: Growth inhibition of human IGROV-1 cells incubated for 48 hrs by sulforhodamine B assay

[4] = system: Panel colon (Carcinoma cell lines); assay: cells; format: functional; conditions: Homo sapiens, time 48 hrs
Description: Growth inhibition of human Panel colon (Carcinoma cell lines) incubated for 48 hrs by sulforhodamine B assay

OVCAR-4 = assay: cells; format: functional; conditions: Homo sapiens, time 48 hrs
Description: Growth inhibition of human OVCAR-4 cells incubated for 48 hrs by sulforhodamine B assay

MCF7 = assay: cells; format: functional; conditions: Homo sapiens, time 48 hrs
Description: Growth inhibition of human MCF7 cells incubated for 48 hrs by sulforhodamine B assay

OVCAR-3 = assay: cells; format: functional; conditions: Homo sapiens, time 48 hrs
Description: Growth inhibition of human OVCAR-3 cells incubated for 48 hrs by sulforhodamine B assay

UACC-62 = assay: cells; format: functional; conditions: Homo sapiens, time 48 hrs
Description: Growth inhibition of human UACC-62 cells incubated for 48 hrs by sulforhodamine B assay

LOX IMVI = assay: cells; format: functional; conditions: Homo sapiens, time 48 hrs
Description: Growth inhibition of human LOX IMVI cells incubated for 48 hrs by sulforhodamine B assay

cells = format: functional; conditions: Homo sapiens, Non-small cell lung cancer cell line; time 48 hrs
Description: Growth inhibition of human Non-small cell lung cancer cell line incubated for 48 hrs by sulforhodamine B assay

U-251 = assay: cells; format: functional; conditions: Homo sapiens, time 48 hrs
Description: Growth inhibition of human U-251 cells incubated for 48 hrs by sulforhodamine B assay

786-0 = assay: Growth inhibition of human 786-0 cells assessed as growth percentage at 10 uM measured after 48 hrs by sulforhodamine B assay relative to control; format: functional; conditions: read-out: Activity
K562 = assay: cells; format: functional; conditions: Homo sapiens, time 48 hrs
Description: Growth inhibition of human K562 cells incubated for 48 hrs by sulforhodamine B assay

KM12 = assay: cells; format: functional; conditions: Homo sapiens, time 48 hrs
Description: Growth inhibition of human KM12 cells incubated for 48 hrs by sulforhodamine B assay

[5] = system: Panel renal (Carcinoma cell lines); assay: cells; format: functional; conditions: Homo sapiens, time 48 hrs
Description: Growth inhibition of human Panel renal (Carcinoma cell lines) incubated for 48 hrs by sulforhodamine B assay

[6] = system: Panel CNS (Carcinoma cell lines); assay: cells; format: functional; conditions: Homo sapiens, time 48 hrs
Description: Growth inhibition of human Panel CNS (Carcinoma cell lines) incubated for 48 hrs by sulforhodamine B assay

UO-31 = assay: cells; format: functional; conditions: Homo sapiens, time 48 hrs
Description: Growth inhibition of human UO-31 cells incubated for 48 hrs by sulforhodamine B assay

[7] = system: Panel melanoma (Carcinoma cell lines); assay: cells; format: functional; conditions: Homo sapiens, time 48 hrs
Description: Growth inhibition of human Panel melanoma (Carcinoma cell lines) incubated for 48 hrs by sulforhodamine B assay

SNB-75 = assay: cells; format: functional; conditions: Homo sapiens, time 48 hrs
Description: Growth inhibition of human SNB-75 cells incubated for 48 hrs by sulforhodamine B assay

RXF 393 = assay: cells; format: functional; conditions: Homo sapiens, time 48 hrs
Description: Growth inhibition of human RXF 393 cells incubated for 48 hrs by sulforhodamine B assay

SR = assay: cells; format: functional; conditions: Homo sapiens, time 48 hrs
Description: Growth inhibition of human SR cells incubated for 48 hrs by sulforhodamine B assay

HCT-15 = assay: cells; format: functional; conditions: Homo sapiens, time 48 hrs
Description: Growth inhibition of human HCT-15 cells incubated for 48 hrs by sulforhodamine B assay

HT-29 = assay: cells; format: functional; conditions: Homo sapiens, time 48 hrs
Description: Growth inhibition of human HT-29 cells incubated for 48 hrs by sulforhodamine B assay

Hs-578T = assay: cells; format: functional; conditions: Homo sapiens, time 48 hrs
Description: Growth inhibition of human Hs-578T cells incubated for 48 hrs by sulforhodamine B assay

A498 = assay: cells; format: functional; conditions: Homo sapiens, time 48 hrs
Description: Growth inhibition of human A498 cells incubated for 48 hrs by sulforhodamine B assay

NCI-H322M = assay: cells; format: functional; conditions: Homo sapiens, time 48 hrs
Description: Growth inhibition of human NCI-H322M cells incubated for 48 hrs by sulforhodamine B assay

SF-295 = assay: cells; format: functional; conditions: Homo sapiens, time 48 hrs
Description: Growth inhibition of human SF-295 cells incubated for 48 hrs by sulforhodamine B assay

NCI-H460 = assay: cells; format: functional; conditions: Homo sapiens, time 48 hrs
Description: Growth inhibition of human NCI-H460 cells incubated for 48 hrs by sulforhodamine B assay

[8] = system: Panel prostate (Carcinoma cell lines); assay: cells; format: functional; conditions: Homo sapiens, time 48 hrs
Description: Growth inhibition of human Panel prostate (Carcinoma cell lines) incubated for 48 hrs by sulforhodamine B assay

HCT-116 = assay: cells; format: functional; conditions: Homo sapiens, time 48 hrs
Description: Growth inhibition of human HCT-116 cells incubated for 48 hrs by sulforhodamine B assay

HOP-62 = assay: cells; format: functional; conditions: Homo sapiens, time 48 hrs
Description: Growth inhibition of human HOP-62 cells incubated for 48 hrs by sulforhodamine B assay

[9] = system: Panel leukemia (Carcinoma cell lines); assay: cells; format: functional; conditions: Homo sapiens, time 48 hrs
Description: Growth inhibition of human Panel leukemia (Carcinoma cell lines) incubated for 48 hrs by sulforhodamine B assay

PC-3 = assay: cells; format: functional; conditions: Homo sapiens, time 48 hrs
Description: Growth inhibition of human PC-3 cells incubated for 48 hrs by sulforhodamine B assay

MDA-MB-231 = assay: cells; format: functional; conditions: Homo sapiens, time 48 hrs
Description: Growth inhibition of human MDA-MB-231/ATCC cells incubated for 48 hrs by sulforhodamine B assay

[10] = system: Panel breast (Carcinoma cell lines); assay: cells; format: functional; conditions: Homo sapiens, time 48 hrs
Description: Growth inhibition of human Panel breast (Carcinoma cell lines) incubated for 48 hrs by sulforhodamine B assay

HOP-92 = assay: cells; format: functional; conditions: Homo sapiens, time 48 hrs
Description: Growth inhibition of human HOP-92 cells incubated for 48 hrs by sulforhodamine B assay

NCI-H226 = assay: cells; format: functional; conditions: Homo sapiens, time 48 hrs
Description: Growth inhibition of human NCI-H226 cells incubated for 48 hrs by sulforhodamine B assay

NCI-H23 = assay: cells; format: functional; conditions: Homo sapiens, time 48 hrs
Description: Growth inhibition of human NCI-H23 cells incubated for 48 hrs by sulforhodamine B assay

COLO 205 = assay: Growth inhibition of human COLO 205 cells assessed as growth percentage at 10 uM measured after 48 hrs by sulforhodamine B assay relative to control; format: functional; conditions: read-out: Activity
[11] = Cytotoxicity against human HFF-1 cells assessed as cell growth inhibition at 0.1 uM by MTT assay relative to control; format: cell-based; conditions: read-out: GI
UACC-257 = assay: cells; format: functional; conditions: Homo sapiens, time 48 hrs
Description: Growth inhibition of human UACC-257 cells incubated for 48 hrs by sulforhodamine B assay

[12] = Cytotoxicity against human HFF-1 cells assessed as cell growth inhibition at 1 uM by MTT assay relative to control; format: cell-based; conditions: read-out: GI
A549 = assay: cells; format: functional; conditions: Homo sapiens, time 48 hrs
Description: Growth inhibition of human A549/ATCC cells incubated for 48 hrs by sulforhodamine B assay

SK-MEL-28 [13] = assay: Growth inhibition of human SK-MEL-28 cells assessed as growth percentage at 10 uM measured after 48 hrs by sulforhodamine B assay relative to control; format: functional; conditions: read-out: Activity
[14] = Cytotoxicity against human HFF-1 cells assessed as cell growth inhibition at 10 uM by MTT assay relative to control; format: cell-based; conditions: read-out: GI
[15] = Cytotoxicity against human HFF-1 cells assessed as cell growth inhibition by MTT assay; format: cell-based
NCI-H522 = assay: cells; format: functional; conditions: Homo sapiens, time 48 hrs
Description: Growth inhibition of human NCI-H522 cells incubated for 48 hrs by sulforhodamine B assay

[16] = read-out: LC50 (the source's name)

Structure (SMILES): FC(F)(F)c1cc(Nc2ccc3c(OCCCN4CCOCC4)cccc3n2)ccc1Cl
- GI50 (TK-10): 3490 nM
- GI50 (SK-MEL-28 [1]): 1850 nM
- GI50 (OVCAR-8): 4330 nM
- GI50 [2]: 3010 nM
- GI50 [3]: 2190 nM
- GI50 (CCRF-CEM): 1630 nM
- GI50 (MDA-MB-468): 2170 nM
- GI50 (IGROV-1): 3960 nM
- GI50 [4]: 1850 nM
- GI50 (OVCAR-4): 3070 nM
- GI50 (MCF7): 1660 nM
- GI50 (OVCAR-3): 2020 nM
- GI50 (UACC-62): 2050 nM
- GI50 (LOX IMVI): 1730 nM
- GI50 (cells): 2320 nM
- GI50 (U-251): 1800 nM
- growth at 10 µM (786-0): 37.8%
- GI50 (K562): 2140 nM
- GI50 (KM12): 2070 nM
- GI50 [5]: 2510 nM
- GI50 [6]: 1960 nM
- GI50 (UO-31): 1630 nM
- GI50 [7]: 1950 nM
- GI50 (SNB-75): 1890 nM
- GI50 (RXF 393): 1780 nM
- GI50 (SR): 2140 nM
- GI50 (HCT-15): 1640 nM
- GI50 (HT-29): 1740 nM
- GI50 (Hs-578T): 2970 nM
- GI50 (A498): 3120 nM
- GI50 (NCI-H322M): 2520 nM
- GI50 (SF-295): 1890 nM
- GI50 (NCI-H460): 2750 nM
- GI50 [8]: 2520 nM
- GI50 (HCT-116): 2070 nM
- GI50 (HOP-62): 1870 nM
- GI50 [9]: 1930 nM
- GI50 (PC-3): 2260 nM
- GI50 (MDA-MB-231): 1820 nM
- GI50 [10]: 2210 nM
- GI50 (HOP-92): 1240 nM
- GI50 (NCI-H226): 3540 nM
- GI50 (NCI-H23): 2000 nM

Structure (SMILES): Fc1ccc(Nc2ccc3c(OCCCN4CCOCC4)cccc3n2)cc1F
- growth at 10 µM (COLO 205): 66.5%

Structure (SMILES): CN1CCN(CCCOc2cccc3nc(Nc4cccc(Cl)c4)ccc23)CC1
- GI50 (TK-10): 1670 nM
- inhibition at 0.1 µM [11]: 5.4%
- GI50 (SK-MEL-28 [1]): 1650 nM
- GI50 (OVCAR-8): 1900 nM
- GI50 [2]: 2010 nM
- LC50 [2]: 11500 nM
- TGI [2]: 4310 nM
- GI50 [3]: 1910 nM
- TGI [3]: 4170 nM
- CC50 [3, 16]: 10700 nM
- GI50 (CCRF-CEM): 1680 nM
- GI50 (MDA-MB-468): 1610 nM
- GI50 (IGROV-1): 2230 nM
- GI50 (UACC-257): 1810 nM
- GI50 [4]: 1640 nM
- TGI [4]: 3100 nM
- CC50 [4, 16]: 5870 nM
- GI50 (OVCAR-4): 1940 nM
- GI50 (MCF7): 1570 nM
- GI50 (OVCAR-3): 1450 nM
- GI50 (UACC-62): 1910 nM
- GI50 (LOX IMVI): 1680 nM
- GI50 (cells): 3730 nM
- LC50 (50% lethal concentration) (cells): 23900 nM
- TGI (cells): 8650 nM
- GI50 (U-251): 1890 nM
- inhibition at 1 µM [12]: 12.2%
- GI50 (K562): 1790 nM
- GI50 (KM12): 1780 nM
- GI50 [5]: 1900 nM
- LC50 (lethal concentration 50%) [5]: 17400 nM
- TGI [5]: 5370 nM
- GI50 [6]: 1890 nM
- TGI [6]: 4000 nM
- CC50 [6, 16]: 23300 nM
- GI50 (UO-31): 1840 nM
- GI50 [7]: 1760 nM
- LC50 [7]: 6450 nM
- TGI [7]: 3370 nM
- GI50 (A549): 2020 nM
- growth at 10 µM (SK-MEL-28 [13]): 35.5%
- GI50 (SNB-75): 1380 nM
- GI50 (RXF 393): 1850 nM
- GI50 (SR): 2200 nM
- GI50 (HCT-15): 1580 nM
- GI50 (HT-29): 1500 nM
- GI50 (Hs-578T): 1830 nM
- inhibition at 10 µM [14]: 22.4%
- GI50 (A498): 1880 nM
- GI50 (NCI-H322M): 2670 nM
- GI50 (SF-295): 1910 nM
- GI50 [15]: > 10000 nM
- GI50 (NCI-H460): 1870 nM
- GI50 [8]: 1900 nM
- LC50 (concentration killing 50% of cells) [8]: 7020 nM
- TGI [8]: 3650 nM
- GI50 (HCT-116): 1550 nM
- GI50 (HOP-62): 1720 nM
- GI50 [9]: 1990 nM
- LC50 (50% lethal concentration) [9]: 38000 nM
- TGI [9]: 4650 nM
- GI50 (NCI-H522): 1480 nM
- GI50 (PC-3): 1810 nM
- GI50 [10]: 1850 nM
- TGI [10]: 6690 nM
- CC50 [10, 16]: 20800 nM
- GI50 (HOP-92): 1650 nM
- GI50 (NCI-H226): 1620 nM
- GI50 (NCI-H23): 2270 nM
